Source: publication PMC12498288 (Frontiers in Immunology, 2025)
Where “and” joins values, the source holds several entries; their conditions need not be identical. Equal values may be shown once. Read-outs that look alike come from different tables or passages of the source.

Key:
[1] = tested on: SARS-CoV-2 Omicron B1.1.592; experiment: microbe, parasite or virus in culture; format: cell-based; conditions: Severe acute respiratory syndrome coronavirus 2, Calu-3, 24 h
HCoV 229E = experiment: Virus yield reduction assay, HCoV-229E on MRC-5 cells (RT-qPCR); format: cell-based; conditions: Human coronavirus 229E, MRC5, MOI 0.001, 48 h
Experimental: The virus yield reduction assay of HCoV-229E and HCoV-OC43 was performed on MRC-5 cells seeded at 1.5x10^5 cells per well in 24-well plates 24 h prior infection with HCoV-229E (MOI 0.001) or HCoV-OC43 (MOI 0.1) for 1 h. The inoculum was completely removed, and the cells were treated with different concentrations of zapnometinib (50 µM to 0.006 µM) and a solvent control in Iscove’s Modified Dulbecco’s Medium (IMDM) containing 2% FBS, 1% Penicillin/Streptomycin at 34°C, 5% CO2 for 24 h (HCoV-OC43) or 48 h (HCoV-229E). Supernatants were harvested and the viral titer was determined by a real-time one-step multiplex RT-qPCR using specific primers targeting the N and NS2 genes for HCoV-229E and HCoV-OC43 respectively ( Supplementary Table 1 ) EC50 values were calculated based on the measured viral titers normalized to the solvent control (1% DMSO) and using the “log(inhibitor) vs. response - Variable slope (four parameters)” analysis in GraphPad Prism v9.

[2] = LDH cytotoxicity assay, CC50 determination on Calu-3 cells; format: cell-based; conditions: human
Experimental: In short, 2x10^4 Calu-3 cells were seeded per well in 96-well cell culture plates in IMDM medium containing 10% FBS, 100 units/mL penicillin, and 100 µg/mL streptomycin two days before treatment. Prior to the treatment, the medium was removed, and the cells were washed once with PBS. The cells were subsequently treated in quadruplicates with 600, 500, 400, 350, 300, 250, 200, 150, or 100 µM zapnometinib dissolved in DMSO and diluted in IMDM medium containing 5% FBS, 100 units/mL penicillin, and 100 µg/mL streptomycin. The DMSO concentration upon treatment was 1%. A DMSO control was supplied with 1% DMSO (without zapnometinib). An untreated control (spontaneous LDH release control) was supplied with cell culture medium (5% FBS). Viability assessment with LDH assay was performed after 24 and 48 h treatment. Therefore, 10 µL 10X Lysis Buffer were added to one well of each quadruplicate treatment set (maximum LDH release control) and the plates were incubated 45 min at 37 °C and 5% CO2. […] After 30 min incubation in the dark at RT, 50 µL stop solution were added to the wells and the absorbance was read at 490 nm and 680 nm. The absorbance measured at 680 nm was subtracted from the absorbance at 490 nm and the %Viability was calculated using the following formula: […]

Vero E6 cells = conditions: Vero E6 24 h 5% FBS

O=C(O)c1ccc(F)c(F)c1Nc1ccc(I)cc1Cl [zapnometinib]
EC50 [1]: 37.9 µM and 15.5 µg/mL
EC50 (HCoV 229E): 26.6 µM and 10.9 µg/mL
CC50 at 24 h ([2]; 24 h treatment): 532 µM and 218 µg/mL
CC50 at 48 h ([2]; 48 h treatment): 471 µM and 193 µg/mL
%LDH release compared to maximum LDH release (Vero E6 cells; 0.39 µM): 0.22%
%LDH release compared to maximum LDH release (Vero E6 cells; 0.78 µM): 0.17%
%LDH release compared to maximum LDH release (Vero E6 cells; 1.56 µM): 0.15%
%LDH release compared to maximum LDH release (Vero E6 cells; 3.13 µM): 0.39%
%LDH release compared to maximum LDH release (Vero E6 cells; 6.25 µM): 0.13%
%LDH release compared to maximum LDH release (Vero E6 cells; 12.50 µM): 0.09%
%LDH release compared to maximum LDH release (Vero E6 cells; 25.00 µM): -0.04%
%LDH release compared to maximum LDH release (Vero E6 cells; 50.00 µM): 0.02%
%LDH release compared to maximum LDH release (Vero E6 cells; 75.00 µM): 0.24%
%LDH release compared to maximum LDH release (Vero E6 cells; 100.00 µM): 0.26%
